Assays:
[1] = tested on: HCT-8; test: Antiproliferative activity against human HCT8 cells by MTT assay; type: functional, cell-based
[2] = tested on: A549; test: Antiproliferative activity against human A549 cells by MTT assay; type: functional, cell-based
[3] = tested on: Bel-7402; test: Antiproliferative activity against human Bel7402 cells by MTT assay; type: functional, cell-based
[4] = tested on: Bel-7402; test: Antiproliferative activity against human Bel7402 cells after 12 to 72 hrs by MTT assay; type: functional, cell-based
[5] = tested on: Bel-7402; test: Antiproliferative activity against human Bel7402 cells at 0.5 to 20 uM by MTT assay; type: functional, cell-based; settings: TDE = time-dependent effect
[6] = tested on: Bel-7402; test: Cell cycle arrest in human Bel7402 cells assessed as accumulation in G2/M phase (reference value: 43.75+/- 1.1 %); type: functional
[7] = tested on: Bel-7402; test: Cell cycle arrest in human Bel7402 cells assessed as accumulation in G1 phase (reference value: 37.6+/- 1.4 %); type: functional
[8] = tested on: HepG2; test: Cytotoxicity against human HepG2 cells; type: functional, cell-based
[9] = Cytotoxicity against human […] cells; type: functional, cell-based
[10] = tested on: HeLa; test: Cytotoxicity against human HeLa cells; type: functional, cell-based
[11] = tested on: EJ; test: Cytotoxicity against human EJ cells; type: functional, cell-based
[12] = tested on: Bel-7402; test: Cell cycle arrest in human Bel7402 cells assessed as accumulation in S phase (reference value: 18.65+/- 0.5 %); type: functional

Row | Compound | IC50 [1] | IC50 [2] | IC50 [3] | also measured
1 | CC(=O)OC[C@H]1O[C@@H](O[C@H]2[C@H](O[C@H]3CC[C@]4(C)[C@H]5CC[C@]67OC[C@@]8(CCC(C)(C)C[C@H]86)[C@H](O)C[C@@]7(C)[C@]5(C)CC[C@H]4C3(C)C)OC[C@H](O[C@@H]3O[C@H](CO)[C@@H](O)[C@H](O[C@@H]4O[C@@H](C)[C@H](O)[C@@H](O)[C@H]4O)[C@H]3O[C@@H]3OC[C@@H](O)[C@H](O)[C@H]3O)[C@@H]2O)[C@H](O)[C@@H](O)[C@@H]1O | 9.28 µM | 8.06 µM | 8.4 µM | –
2 | CC1(C)CC[C@]23CO[C@@]4(CC[C@@H]5[C@@]6(C)CC[C@H](O[C@@H]7OC[C@H](O[C@@H]8O[C@H](CO)[C@@H](O)[C@H](O)[C@H]8O[C@@H]8OC[C@@H](O)[C@H](O)[C@H]8O)[C@H](O)[C@H]7O[C@@H]7O[C@H](CO)[C@@H](O)[C@H](O)[C@H]7O)C(C)(C)[C@@H]6CC[C@@]5(C)[C@]4(C)C[C@H]2O)[C@@H]3C1 [LYSIKOKIANOSIDE 1] | 10.1 µM | 4.37 µM | 6.77 µM | –
3 | C[C@@H]1O[C@@H](O[C@H]2[C@H](O)[C@@H](CO)O[C@@H](O[C@H]3CO[C@@H](O[C@H]4CC[C@]5(C)[C@H]6CC[C@]78OC[C@@]9(CC[C@](C)(CO)C[C@H]97)C(=O)C[C@@]8(C)[C@]6(C)CC[C@H]5C4(C)C)[C@H](O[C@@H]4O[C@H](CO)[C@@H](O)[C@H](O)[C@H]4O)[C@H]3O)[C@@H]2O[C@@H]2OC[C@@H](O)[C@H](O)[C@H]2O)[C@H](O)[C@H](O)[C@H]1O | 3.41 µM | 3.77 µM | 3.6 µM | –
4 | C[C@@H]1O[C@@H](O[C@H]2[C@H](O)[C@@H](CO)O[C@@H](O[C@H]3CO[C@@H](O[C@H]4CC[C@]5(C)[C@H]6CC[C@]78OC[C@@]9(CCC(C)(C)C[C@H]97)[C@H](O)C[C@@]8(C)[C@]6(C)CC[C@H]5C4(C)C)[C@H](O[C@@H]4O[C@H](CO)[C@@H](O)[C@H](O)[C@H]4O)[C@H]3O)[C@@H]2O[C@@H]2OC[C@@H](O)[C@H](O[C@@H]3O[C@H](CO)[C@@H](O)[C@H](O)[C@H]3O)[C@H]2O)[C@H](O)[C@H](O)[C@H]1O | 10.1 µM | 8.15 µM | 7.83 µM | Activity [4]: Dose-dependent effect; Activity [5]: tde; Activity [6]: 59.94%; Activity [7]: 40.86%
5 | CC(=O)OC[C@@]1(C)CC[C@]23CO[C@@]4(CC[C@@H]5[C@@]6(C)CC[C@H](O[C@@H]7OC[C@H](O[C@@H]8O[C@H](CO)[C@@H](O)[C@H](O[C@@H]9O[C@@H](C)[C@H](O)[C@@H](O)[C@H]9O)[C@H]8O[C@@H]8OC[C@@H](O)[C@H](O[C@@H]9O[C@H](CO)[C@@H](O)[C@H](O)[C@H]9O)[C@H]8O)[C@H](O)[C@H]7O[C@@H]7O[C@H](CO)[C@@H](O)[C@H](O)[C@H]7O)C(C)(C)[C@@H]6CC[C@@]5(C)[C@]4(C)C[C@H]2O)[C@@H]3C1 | 5.73 µM | 6.33 µM | 2.71 µM | –
6 | CC(=O)OC[C@H]1O[C@@H](O[C@H]2[C@H](O[C@H]3CC[C@]4(C)[C@H]5CC[C@]67OC[C@@]8(CC[C@](C)(C=O)C[C@H]86)[C@H](O)C[C@@]7(C)[C@]5(C)CC[C@H]4C3(C)C)OC[C@H](O[C@@H]3O[C@H](CO)[C@@H](O)[C@H](O[C@@H]4O[C@@H](C)[C@H](O)[C@@H](O)[C@H]4O)[C@H]3O[C@@H]3OC[C@@H](O)[C@H](O)[C@H]3O)[C@@H]2O)[C@H](O)[C@@H](O)[C@@H]1O | 4.1 µM | 7.52 µM | 7.76 µM | –
7 | CCCCO[C@@H]1OC[C@]23CC[C@@]1(C)C[C@H]2C1=CC[C@@H]2[C@@]4(C)CC[C@H](O)C(C)(C)[C@@H]4CC[C@@]2(C)[C@]1(C)C[C@H]3O | > 100 µM | > 100 µM | 11.6 µM | –
8 | CCCCO[C@@H]1OC[C@]23CC[C@@]1(C)C[C@H]2C1=CC[C@@H]2[C@@]4(C)CC[C@H](O[C@@H]5OC[C@H](O[C@@H]6O[C@H](CO)[C@@H](O)[C@H](O)[C@H]6O)[C@H](O)[C@H]5O[C@@H]5O[C@H](CO)[C@@H](O)[C@H](O)[C@H]5O)C(C)(C)[C@@H]4CC[C@@]2(C)[C@]1(C)C[C@H]3O | > 100 µM | 10.6 µM | 7.34 µM | –
9 | O=c1[nH]cc(F)c(=O)[nH]1 [FLUOROURACIL] | 6.92 µM | – | 8.3 µM | –
10 | C[C@@H]1O[C@@H](O[C@H]2[C@H](O)[C@@H](CO)O[C@@H](O[C@H]3CO[C@@H](O[C@H]4CC[C@]5(C)[C@H]6CC[C@]78OC[C@@]9(CC[C@](C)(C=O)C[C@H]97)C(=O)C[C@@]8(C)[C@]6(C)CC[C@H]5C4(C)C)[C@H](O)[C@H]3O)[C@@H]2O[C@@H]2OC[C@@H](O)[C@H](O)[C@H]2O)[C@H](O)[C@H](O)[C@H]1O | 7.73 µM | 10 µM | 6.9 µM | –
11 | C[C@@H]1O[C@@H](O[C@H]2[C@H](O)[C@@H](CO)O[C@@H](O[C@H]3CO[C@@H](O[C@H]4CC[C@]5(C)[C@H]6CC[C@]78OC[C@@]9(CC[C@](C)(C=O)C[C@H]97)[C@H](O)C[C@@]8(C)[C@]6(C)CC[C@H]5C4(C)C)[C@H](O[C@@H]4O[C@H](CO)[C@@H](O)[C@H](O)[C@H]4O)[C@H]3O)[C@@H]2O[C@@H]2OC[C@@H](O)[C@H](O)[C@H]2O)[C@H](O)[C@H](O)[C@H]1O | > 100 µM | > 100 µM | 1.58 µM | IC50 [8]: 1.9 µM; IC50 [9]: 2.1 µM; IC50 [10]: 1.8 µM; IC50 [11]: 2 µM
12 | C[C@@H]1O[C@@H](O[C@H]2[C@H](O)[C@@H](CO)O[C@@H](O[C@H]3CO[C@@H](O[C@H]4CC[C@]5(C)[C@H]6CC[C@]78OC[C@@]9(CCC(C)(C)C[C@H]97)[C@H](O)C[C@@]8(C)[C@]6(C)CC[C@H]5C4(C)C)[C@H](O[C@@H]4O[C@H](CO)[C@@H](O)[C@H](O)[C@H]4O)[C@H]3O)[C@@H]2O[C@@H]2OC[C@@H](O)[C@H](O)[C@H]2O)[C@H](O)[C@H](O)[C@H]1O | > 100 µM | 51.8 µM | 0.86 µM | Activity [12]: 18.61%; Activity [4]: Dose-dependent effect; Activity [5]: tde; Activity [6]: 48.08%; Activity [7]: 33.31%
13 | CCCCO[C@H]1OC[C@]23CC[C@@]1(C)C[C@H]2C1=CC[C@@H]2[C@@]4(C)CC[C@H](O)C(C)(C)[C@@H]4CC[C@@]2(C)[C@]1(C)C[C@H]3O | > 100 µM | 44.3 µM | 53.1 µM | –
14 | C[C@@H]1O[C@@H](O[C@H]2[C@H](O)[C@@H](CO)O[C@@H](O[C@H]3CO[C@@H](O[C@H]4CC[C@]5(C)[C@H]6CC[C@]78OC[C@@]9(CC[C@](C)(C=O)C[C@H]97)[C@H](O)C[C@@]8(C)[C@]6(C)CC[C@H]5C4(C)C)[C@H](O[C@@H]4O[C@H](CO)[C@@H](O)[C@H](O)[C@H]4O)[C@H]3O)[C@@H]2O[C@@H]2OC[C@@H](O)[C@H](O[C@@H]3O[C@H](CO)[C@@H](O)[C@H](O)[C@H]3O)[C@H]2O)[C@H](O)[C@H](O)[C@H]1O | 2 µM | 3.2 µM | 3.2 µM | –
15 | CC(=O)OC[C@@]1(C)CC[C@]23CO[C@@]4(CC[C@@H]5[C@@]6(C)CC[C@H](O[C@@H]7OC[C@H](O[C@@H]8O[C@H](CO)[C@@H](O)[C@H](O[C@@H]9O[C@@H](C)[C@H](O)[C@@H](O)[C@H]9O)[C@H]8O[C@@H]8OC[C@@H](O)[C@H](O)[C@H]8O)[C@H](O)[C@H]7O[C@@H]7O[C@H](CO)[C@@H](O)[C@H](O)[C@H]7O)C(C)(C)[C@@H]6CC[C@@]5(C)[C@]4(C)C[C@H]2O)[C@@H]3C1 | > 100 µM | 59.7 µM | > 100 µM | –
16 | CC1(C)[C@@H](O[C@@H]2OC[C@H](O[C@@H]3O[C@H](CO)[C@@H](O)[C@H](O)[C@H]3O[C@@H]3OC[C@@H](O)[C@H](O)[C@H]3O)[C@H](O)[C@H]2O)CC[C@]2(C)[C@H]3CC[C@]45OC[C@@]6(CC[C@](C)(C=O)C[C@H]64)[C@H](O)C[C@@]5(C)[C@]3(C)CC[C@@H]12 [PRIMULANIN] | 8.43 µM | 12 µM | 10.3 µM | –
17 | C[C@@H]1O[C@@H](O[C@H]2[C@H](O)[C@@H](CO)O[C@@H](O[C@H]3CO[C@@H](O[C@H]4CC[C@]5(C)[C@H]6CC[C@]78OC[C@@]9(CC[C@](C)(CO)C[C@H]97)[C@H](O)C[C@@]8(C)[C@]6(C)CC[C@H]5C4(C)C)[C@H](O[C@@H]4O[C@H](CO)[C@@H](O)[C@H](O)[C@H]4O)[C@H]3O)[C@@H]2O[C@@H]2OC[C@@H](O)[C@H](O)[C@H]2O)[C@H](O)[C@H](O)[C@H]1O | 8.63 µM | 31 µM | > 100 µM | –
18 | CCCCO[C@H]1OC[C@]23CC[C@@]1(C)C[C@H]2C1=CC[C@@H]2[C@@]4(C)CC[C@H](O[C@@H]5OC[C@H](O[C@@H]6O[C@H](CO)[C@@H](O)[C@H](O)[C@H]6O)[C@H](O)[C@H]5O[C@@H]5O[C@H](CO)[C@@H](O)[C@H](O)[C@H]5O)C(C)(C)[C@@H]4CC[C@@]2(C)[C@]1(C)C[C@H]3O | > 100 µM | > 100 µM | > 100 µM | –
